{
  "source": "ChEMBL document CHEMBL4145495",
  "about": "“Development of novel oxazolo[5,4-d]pyrimidines as competitive CB2 neutral antagonists based on scaffold hopping” (Eur J Med Chem, 2018)",
  "data": [
    {"tested_on": "not listed separately", "assay": "Cytotoxicity against CB2-expressing CHO cells assessed as cell growth inhibition at 10 uM after 72 hrs by MTS assay", "assay_type": "cell-based, Cricetulus griseus", "conditions": "chinese hamster, read-out: GI", "units": {"inhibition at 72 h, 10 µM": "%"}, "values": [
      {"smiles": "Clc1ccccc1-c1nc2c(N3CCOCC3)ncnc2o1", "inhibition at 72 h, 10 µM": 10},
      {"smiles": "CN1CCN(c2ncnc3oc(-c4ccccc4)nc23)CC1", "inhibition at 72 h, 10 µM": 0},
      {"smiles": "Clc1ccccc1-c1nc2c(NCC3CCNCC3)ncnc2o1", "inhibition at 72 h, 10 µM": 9},
      {"smiles": "CCCCNc1ncnc2oc(-c3ccccc3Cl)nc12", "inhibition at 72 h, 10 µM": 18},
      {"smiles": "Clc1ccccc1-c1nc2c(NCC3CCCCC3)ncnc2o1", "inhibition at 72 h, 10 µM": 10},
      {"smiles": "COCCNc1ncnc2oc(-c3ccccc3Cl)nc12", "inhibition at 72 h, 10 µM": 0},
      {"smiles": "COc1ccc(C(=O)c2c(C)n(CCN3CCOCC3)c3cc(I)ccc23)cc1", "inhibition at 72 h, 10 µM": 0},
      {"smiles": "CCN1CCN(c2ncnc3oc(-c4ccccc4)nc23)CC1", "inhibition at 72 h, 10 µM": 0},
      {"smiles": "CCN1CCN(c2ncnc3oc(-c4ccccc4F)nc23)CC1", "inhibition at 72 h, 10 µM": 8},
      {"smiles": "CCN1CCN(c2nc(C)nc3[nH]c(-c4ccccc4Cl)nc23)CC1", "inhibition at 72 h, 10 µM": 0},
      {"smiles": "CCCCCNc1ncnc2oc(-c3ccccc3Cl)nc12", "inhibition at 72 h, 10 µM": 13}
    ]},
    {"tested_on": "not listed separately", "assay": "Intrinsic clearance in CD1 mouse liver microsomes at 1 uM up to 40 mins by UPLC-MS/MS analysis", "assay_type": "ADME, microsome", "conditions": "read-out: CLH", "units": {"microsomal CLint at 1 µM": "µL/min/mg"}, "values": [
      {"smiles": "CCN1CCN(c2nc(C)nc3[nH]c(-c4ccccc4Cl)nc23)CC1", "microsomal CLint at 1 µM": 54}
    ]},
    {"tested_on": "not listed separately", "assay": "Half life in CD1 mouse liver microsomes at 1 uM up to 40 mins by UPLC-MS/MS analysis", "assay_type": "ADME, microsome", "conditions": "not given", "units": {"half-life at 1 µM": "min"}, "values": [
      {"smiles": "CCN1CCN(c2nc(C)nc3[nH]c(-c4ccccc4Cl)nc23)CC1", "half-life at 1 µM": 44}
    ]},
    {"tested_on": "not listed separately", "assay": "Cytotoxicity against human HT-29 cells assessed as cell growth inhibition at 10 uM after 72 hrs by MTS assay", "assay_type": "cell-based", "conditions": "read-out: GI", "units": {"inhibition at 72 h, 10 µM": "%"}, "values": [
      {"smiles": "Clc1ccccc1-c1nc2c(N3CCOCC3)ncnc2o1", "inhibition at 72 h, 10 µM": 5},
      {"smiles": "CN1CCN(c2ncnc3oc(-c4ccccc4)nc23)CC1", "inhibition at 72 h, 10 µM": 0},
      {"smiles": "Clc1ccccc1-c1nc2c(NCC3CCNCC3)ncnc2o1", "inhibition at 72 h, 10 µM": 41},
      {"smiles": "CCCCNc1ncnc2oc(-c3ccccc3Cl)nc12", "inhibition at 72 h, 10 µM": 0},
      {"smiles": "Clc1ccccc1-c1nc2c(NCC3CCCCC3)ncnc2o1", "inhibition at 72 h, 10 µM": 0},
      {"smiles": "COCCNc1ncnc2oc(-c3ccccc3Cl)nc12", "inhibition at 72 h, 10 µM": 0},
      {"smiles": "COc1ccc(C(=O)c2c(C)n(CCN3CCOCC3)c3cc(I)ccc23)cc1", "inhibition at 72 h, 10 µM": 0},
      {"smiles": "CCN1CCN(c2ncnc3oc(-c4ccccc4)nc23)CC1", "inhibition at 72 h, 10 µM": 0},
      {"smiles": "CCN1CCN(c2ncnc3oc(-c4ccccc4F)nc23)CC1", "inhibition at 72 h, 10 µM": 24},
      {"smiles": "CCN1CCN(c2nc(C)nc3[nH]c(-c4ccccc4Cl)nc23)CC1", "inhibition at 72 h, 10 µM": 0},
      {"smiles": "CCCCCNc1ncnc2oc(-c3ccccc3Cl)nc12", "inhibition at 72 h, 10 µM": 10}
    ]},
    {"tested_on": "not listed separately", "assay": "Cytotoxicity against wild-type CHO cells assessed as cell growth inhibition at 10 uM after 72 hrs by MTS assay", "assay_type": "cell-based, Cricetulus griseus", "conditions": "chinese hamster, read-out: GI", "units": {"inhibition at 72 h, 10 µM": "%"}, "values": [
      {"smiles": "Clc1ccccc1-c1nc2c(N3CCOCC3)ncnc2o1", "inhibition at 72 h, 10 µM": 0},
      {"smiles": "CN1CCN(c2ncnc3oc(-c4ccccc4)nc23)CC1", "inhibition at 72 h, 10 µM": 0},
      {"smiles": "Clc1ccccc1-c1nc2c(NCC3CCNCC3)ncnc2o1", "inhibition at 72 h, 10 µM": 0},
      {"smiles": "CCCCNc1ncnc2oc(-c3ccccc3Cl)nc12", "inhibition at 72 h, 10 µM": 0},
      {"smiles": "Clc1ccccc1-c1nc2c(NCC3CCCCC3)ncnc2o1", "inhibition at 72 h, 10 µM": 0},
      {"smiles": "COCCNc1ncnc2oc(-c3ccccc3Cl)nc12", "inhibition at 72 h, 10 µM": 0},
      {"smiles": "COc1ccc(C(=O)c2c(C)n(CCN3CCOCC3)c3cc(I)ccc23)cc1", "inhibition at 72 h, 10 µM": 0},
      {"smiles": "CCN1CCN(c2ncnc3oc(-c4ccccc4)nc23)CC1", "inhibition at 72 h, 10 µM": 0},
      {"smiles": "CCN1CCN(c2ncnc3oc(-c4ccccc4F)nc23)CC1", "inhibition at 72 h, 10 µM": 10},
      {"smiles": "CCN1CCN(c2nc(C)nc3[nH]c(-c4ccccc4Cl)nc23)CC1", "inhibition at 72 h, 10 µM": 30},
      {"smiles": "CCCCCNc1ncnc2oc(-c3ccccc3Cl)nc12", "inhibition at 72 h, 10 µM": 6}
    ]},
    {"target": "Cannabinoid receptor 1 (Homo sapiens, UniProt P21554)", "sequence (P21554 whole entry)": "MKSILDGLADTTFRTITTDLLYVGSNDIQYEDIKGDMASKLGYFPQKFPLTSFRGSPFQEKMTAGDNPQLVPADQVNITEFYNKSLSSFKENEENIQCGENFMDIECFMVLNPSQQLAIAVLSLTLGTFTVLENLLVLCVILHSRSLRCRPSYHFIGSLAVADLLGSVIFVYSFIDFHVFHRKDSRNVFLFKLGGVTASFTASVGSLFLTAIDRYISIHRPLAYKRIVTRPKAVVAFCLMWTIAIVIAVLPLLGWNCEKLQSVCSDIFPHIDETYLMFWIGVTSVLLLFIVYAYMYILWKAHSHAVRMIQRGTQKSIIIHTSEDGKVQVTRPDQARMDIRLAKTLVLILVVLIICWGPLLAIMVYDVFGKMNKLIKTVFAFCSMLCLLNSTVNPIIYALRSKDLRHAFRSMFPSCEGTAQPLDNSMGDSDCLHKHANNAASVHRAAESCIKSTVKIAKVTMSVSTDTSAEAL", "assay": "Displacement of [3H]-CP-55940 from human CB1 expressed in CHO cells after 90 mins by TopCount scintillation counting method", "assay_type": "cell-based", "conditions": "not given", "units": {"Ki": "nM"}, "values": [
      {"smiles": "Clc1ccccc1-c1nc2c(N3CCOCC3)ncnc2o1", "Ki": "> 1000"},
      {"smiles": "CN1CCN(c2ncnc3oc(-c4ccccc4)nc23)CC1", "Ki": "> 1000"},
      {"smiles": "Clc1ccccc1-c1nc2c(NCC3CCNCC3)ncnc2o1", "Ki": "> 1000"},
      {"smiles": "CCCCNc1ncnc2oc(-c3ccccc3Cl)nc12", "Ki": "> 1000"},
      {"smiles": "Clc1ccccc1-c1nc2c(NCC3CCCCC3)ncnc2o1", "Ki": "> 1000"},
      {"smiles": "COCCNc1ncnc2oc(-c3ccccc3Cl)nc12", "Ki": "> 1000"},
      {"smiles": "CCN1CCN(c2ncnc3oc(-c4ccccc4)nc23)CC1", "Ki": "> 1000"},
      {"smiles": "CCN1CCN(c2ncnc3oc(-c4ccccc4F)nc23)CC1", "Ki": "> 1000"},
      {"smiles": "CCCCCNc1ncnc2oc(-c3ccccc3Cl)nc12", "Ki": "> 1000"}
    ]},
    {"target": "Cannabinoid receptor 2 (Homo sapiens, UniProt P34972)", "sequence (P34972 whole entry)": "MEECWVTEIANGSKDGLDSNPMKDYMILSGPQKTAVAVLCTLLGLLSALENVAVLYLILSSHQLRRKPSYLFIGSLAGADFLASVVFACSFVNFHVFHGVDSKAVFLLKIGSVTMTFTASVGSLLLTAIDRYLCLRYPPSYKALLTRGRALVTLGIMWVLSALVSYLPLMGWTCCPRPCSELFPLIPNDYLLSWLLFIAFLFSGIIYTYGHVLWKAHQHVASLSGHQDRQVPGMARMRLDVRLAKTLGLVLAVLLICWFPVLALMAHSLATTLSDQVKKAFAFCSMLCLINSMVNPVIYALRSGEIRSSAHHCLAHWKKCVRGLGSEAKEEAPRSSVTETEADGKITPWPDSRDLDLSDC", "assay": "Displacement of [3H]-CP-55940 from human CB2 expressed in CHO cells after 90 mins by TopCount scintillation counting method", "assay_type": "cell-based", "conditions": "not given", "units": {"Ki": "nM"}, "values": [
      {"smiles": "Clc1ccccc1-c1nc2c(N3CCOCC3)ncnc2o1", "Ki": "> 1000"},
      {"smiles": "CN1CCN(c2ncnc3oc(-c4ccccc4)nc23)CC1", "Ki": "> 1000"},
      {"smiles": "Clc1ccccc1-c1nc2c(NCC3CCNCC3)ncnc2o1", "Ki": "> 1000"},
      {"smiles": "CCCCNc1ncnc2oc(-c3ccccc3Cl)nc12", "Ki": "> 1000"},
      {"smiles": "Clc1ccccc1-c1nc2c(NCC3CCCCC3)ncnc2o1", "Ki": "> 1000"},
      {"smiles": "COCCNc1ncnc2oc(-c3ccccc3Cl)nc12", "Ki": "> 1000"},
      {"smiles": "COc1ccc(C(=O)c2c(C)n(CCN3CCOCC3)c3cc(I)ccc23)cc1", "Ki": 91},
      {"smiles": "CCN1CCN(c2ncnc3oc(-c4ccccc4)nc23)CC1", "Ki": "> 1000"},
      {"smiles": "CCN1CCN(c2ncnc3oc(-c4ccccc4F)nc23)CC1", "Ki": "> 1000"},
      {"smiles": "CCCCCNc1ncnc2oc(-c3ccccc3Cl)nc12", "Ki": "> 1000"}
    ]}
  ]
}
